Patent US20050043331A1, “Substituted 3-(2,5-disubstituted)pyridyl-4-aryl pyrroles for treating inflammatory diseases” (priority 2002, published 2005)
Read-outs that look alike come from different tables or passages of the source.

Tests used:
TNF-α [1] = test: In vivo rodent assay for inhibition of LPS-induced TNF-α production; parameters: species or system Mice (BALB/cJ females); conditions: Mus musculus, po, 10 mg/kg oral
In short: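 Female BALB/cJ mice or male Lewis rats, fasted 30 min, received compound orally (mg/kg) at various times before intraperitoneal LPS at 1 mg/kg. Blood was collected by cardiac puncture 1 h after LPS, and serum TNF-α was quantified by species-specific ELISA.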

P38 [2] = biological target: T1, P38 (Homo sapiens, UniProt Q16539); test: p38 inhibition in-vitro enzyme assay; type: biochemical; conditions: recombinant 6×His-p38
Procedure: Purified recombinant 6×His-p38 and GST-ATF2 (both expressed in Baculovirus) were served as enzyme and substrate in our p38 inhibition assay. The enzyme reaction was performed in the anti-GST antibody pre-coated 96-well ELISA plate.
A 96-well ELISA plate was coated with 100 μl/well of anti-GST antibody (from Amersham) at a concentration of […] and incubated overnight at 4° C. The ELISA plate was blocked with 100 μl/well of 1% BSA at 25° C. for at least 2 hours, then the plate was washed with 300 μl PBST. The enzyme reaction was started by adding 10 μl of p38 recombinant protein (0.05 nM in final concentration), 10 μl of compound in desired concentration, 10 μl of substrates (670 μM ATP, 200 nM GST-ATF2 in final concentration) and 70 μl of reaction buffer (50 mM HEPES, pH 7.4, 100 mM NaCl, 10 mM MgCl2) and the mixture was incubated at 37° C. for 30 min. Washing the reaction plate with 3×300 μl/well of PBST stopped the enzyme reaction. Detection of the phosphorylated ATF2 substrate was done by the addition of 100 μl of anti-Pi-ATF2 antibody (from Cell Signaling) at a 1:200 dilution. The mixture was incubated at 25° C. for 30 min. A solution of 100 μl of HRP-conjugated goat anti-rabbit antibody (from Pierce) at a 1:250 dilution was added and the mixture and incubated at 25° C. for 30 min. The plate was washed with 6×300 μI PBST and 100 μl of OPD substrate (from Sigma) was then added. The mixture was incubated at 25° C. for 10 min. before adding 100 μl of 3 N H2SO4. The plate was read at 490 nm.
The % inhibition of each test compound was calculated by the following formula: % inhibition=[1−(sample−BKG)/(CTRL−BKG)]×100. The IC50 of each test compound was determined by a triplicate-8 point dose titration curve by Prism GraphPad program. […]

P38 [3] = biological target: T1, P38; test: P38 cell, 1 μM LJ; type: cell-based; parameters: unit not given here
TNF-α [4] = test: In-vitro whole cell assay for TNF-α inhibition (LPS-stimulated PBMC, ELISA); type: cell-based; conditions: TNF-α by ELISA
In short: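 Human PBMC from heparinized venous blood (Ficoll-Hypaque), 1.67×10^6/mL in low-endotoxin RPMI/1% FCS, preincubated with compound 1 h at 37° C, then stimulated with LPS (200 ng/mL stock) overnight at 37° C. Duplicate wells. Supernatant TNF-α quantified by ELISA.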

[5] = 0.5 h, 0.5 h, read-out: Mouse 10 mg/kg % inhib 0.5 h

T1 sequence (Q16539 whole entry): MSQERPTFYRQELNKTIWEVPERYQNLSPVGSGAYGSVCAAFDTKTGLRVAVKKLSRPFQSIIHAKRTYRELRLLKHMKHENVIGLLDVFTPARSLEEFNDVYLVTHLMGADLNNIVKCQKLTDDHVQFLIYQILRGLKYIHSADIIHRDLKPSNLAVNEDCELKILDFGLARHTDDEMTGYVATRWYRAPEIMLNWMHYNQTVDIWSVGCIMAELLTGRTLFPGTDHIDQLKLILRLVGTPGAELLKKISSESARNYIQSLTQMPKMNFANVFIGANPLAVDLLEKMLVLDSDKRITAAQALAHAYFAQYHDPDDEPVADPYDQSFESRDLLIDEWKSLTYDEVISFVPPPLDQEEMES

| SMILES | inhibition in vivo at 10 mg/kg (TNF-α [1]; [5]) [%] | IC50 (P38 [2]) [nM] | P38 cell 1 μM LJ (P38 [3]) | IC50 (TNF-α [4]) [nM] | inhibition in vivo at 10 mg/kg (TNF-α [1]; 2 h, 2 h, read-out: Mouse 10 mg/kg % inhib 2 h) [%] |
| --- | --- | --- | --- | --- | --- |
| CCOC(=O)c1[nH]cc(-c2ccncc2)c1-c1cc(F)cc(F)c1 [Cpd 62] | -14 | 3470 | 0 | 114 |  |
| CCOC(=O)c1c(-c2cc(F)cc(F)c2)c(-c2ccncc2)cn1C [Cpd 64] | -31 | 8690 | 7 | 33 |  |
| CCOC(=O)c1[nH]cc(-c2ccncc2)c1-c1ccccc1 [Cpd 71] | 58 | 572 | 9 | 149 |  |
| CCOC(=O)c1c(-c2cc(F)cc(F)c2)c(-c2ccncc2)c(N2CCNCC2)n1C [Cpd 100] | 75 | > 10000 | 12 | 93 |  |
| CNC(=O)c1c(-c2ccc(F)cc2)c(-c2ccncc2)c(N2CCNCC2)n1C [Cpd 99] | -7 | > 10000 | 7 | 106 |  |
| Fc1ccc(-c2c[nH]c(CNCc3ccncc3)c2-c2ccncc2)cc1 [Cpd 74] | 47 | 400 | 25 | 74 |  |
| OCCNCc1[nH]cc(-c2ccc(F)cc2)c1-c1ccncc1 [Cpd 63] |  | > 2000 | 8 | 148 |  |
| COC(=O)c1c(-c2ccc(F)cc2)c(-c2ccncc2)c(Cc2ccc(N(C)C)cc2)n1C [Cpd 102] | 15 | > 10000 | 12 | 118 |  |
| Fc1ccc(-c2c[nH]c(CN3CCNCC3)c2-c2ccncc2)cc1 [Cpd 56] | -41 | 856 |  | 63 |  |
| Cn1cc(-c2ccc(F)cc2)c(-c2ccncc2)c1N1CCNCC1 [Cpd 78] | 75 | 2020 | 61 | 15 |  |
| O=C1c2c(-c3ccncc3)c(-c3ccc(F)cc3)cn2C(=O)N1Cc1ccccc1 [Cpd 50] | 51 | > 10000 |  | 26 |  |
| CN(C)C(=O)c1c(-c2ccc(F)cc2)c(-c2ccncc2)c(N2CCNCC2)n1C [Cpd 101] |  | > 10000 | 13 | 120 |  |
| C[C@H](Nc1nccc(-c2cn(CCN3CCOCC3)cc2-c2ccc(F)cc2)n1)c1ccccc1 [Cpd 68] | -21 | 7 | 83 | 4 |  |
| O=C(NCc1ccccc1)c1[nH]cc(-c2ccc(F)cc2)c1-c1ccncc1 [Cpd 51] | -60 | > 10000 |  | 14 |  |
| COC(=O)c1c(-c2ccc(F)cc2)c(-c2ccncc2)c(NCCN2CCOCC2)n1C [Cpd 5] | 44 | > 10000 | 2 | 50 |  |
| COC(=O)c1c(-c2ccc(F)cc2)c(-c2ccncc2)c(N2CCN(C)CC2)n1C [Cpd 10, 3-(4-Fluorophenyl)-1-methyl-5-(4-methyl-1-piperazinyl)-4-(4-pyridinyl)-1H-pyrrole-2-carboxylic acid methyl ester] | 89 |  | 1 | 95 |  |
| CCCc1[nH]cc(-c2ccc(F)cc2)c1-c1ccnc(N[C@@H](C)c2ccccc2)n1 [Cpd 53] | -19 | 1440 |  | 10 |  |

| SMILES | inhibition in vivo at 10 mg/kg (TNF-α [1]; [5]) [%] | IC50 (P38 [2]) [nM] | P38 cell 1 μM LJ (P38 [3]) | IC50 (TNF-α [4]) [nM] | inhibition in vivo at 10 mg/kg (TNF-α [1]; 2 h, 2 h, read-out: Mouse 10 mg/kg % inhib 2 h) [%] |
| --- | --- | --- | --- | --- | --- |
| COC(=O)c1c(-c2ccc(F)cc2)c(-c2ccncc2)c(N)n1C [Cpd 9, 5-Amino-3-(4-fluorophenyl)-1-methyl-4-(4-pyridinyl)-1H-pyrrole-2-carboxylic acid methyl ester] | 53.9 |  | 12 | 51 |  |
| CCN1CCCC1CNc1c(-c2ccncc2)c(-c2ccc(F)cc2)c(C(=O)OC)n1C (centres unmarked) [Cpd 109] |  | 6180 |  | 7750 |  |
| Fc1ccc(-c2cn3c(c2-c2ccncc2)CN(Cc2ccccc2)CC3)cc1 [Cpd 29, 7-(4-Fluorophenyl)-1,2,3,4-tetrahydro-2-(phenylmethyl)-8-(4-pyridinyl)-pyrrolo[1,2-a]pyrazine] | -6 | 1660 |  | 11 |  |
| COC(=O)c1c(-c2ccc(F)cc2)c(-c2ccncc2)c(N2CCOCC2)n1C [Cpd 81] | -41 |  | 12 | 47 |  |
| COC(=O)c1c(-c2ccc(F)cc2)c(-c2ccncc2)c(N(C)CCN2CCOCC2)n1C [Cpd 11, 3-(4-Fluorophenyl)-1-methyl-5-[methyl[2-(4-morpholinyl)ethyl]amino]-4-(4-pyridinyl)-1H-pyrrole-2-carboxylic acid methyl ester] | 66 | > 10000 |  | 38 |  |
| CCCc1c(-c2ccnc(N[C@@H](C)COC)n2)c(-c2ccc(F)cc2)cn1C(=O)OC(C)(C)C [Cpdd 58] |  | 1350 |  | 50 |  |
| COC(=O)c1c(-c2ccc(F)cc2)c(-c2ccncc2)c(N2CCCC2)n1C [Cpd 80] | -38 |  | 32 | 17 |  |
| Cn1c(C(=O)OC(C)(C)C)c(-c2ccc(F)cc2)c(-c2ccncc2)c1N1CCNCC1 [Cpd 94] | 25 |  | 10 | 420 |  |
| CC(=O)c1c(-c2ccc(F)cc2)c(-c2ccncc2)c(N2CCNCC2)n1C [Cpd 91] | 39 |  | 29 | 40 |  |
| CN(C)C(=O)c1c(-c2ccc(F)cc2)c(-c2ccncc2)cn1C [Cpd 95] | 33 |  | 21 | 1380 |  |
| COC(=O)C(=O)c1c(-c2ccc(F)cc2)c(-c2ccncc2)c(N2CCNCC2)n1C [Cpd 108] | 52 |  | 15 | 28 |  |
| C[C@H](Nc1nccc(-c2c[nH]cc2-c2ccc(F)cc2)n1)c1ccccc1 [Cpd 67] |  | 55 | 90 | 3 |  |
| Nc1[nH]cc(-c2ccc(F)cc2)c1-c1ccncc1 [Cpd 66] |  | 905 | 6 | 905 |  |
| CCOC(=O)c1[nH]cc(-c2ccc(F)cc2)c1-c1ccncc1 [Cpd 54] |  | > 10000 |  | 145 |  |
| CCOC(=O)c1c(-c2ccc(C)cc2)c(-c2ccncc2)c(Br)n1C [Cpd 79] | -76 |  | 9 | 736 |  |
| CNC(=O)c1c(-c2ccc(F)cc2)c(-c2ccncc2)cn1C [Cpd 76] | 67 |  | 18 | 1480 | 78 |
